Columns and labels:
[1] = molecular target: T1, COX-2 (Homo sapiens, UniProt P35354); test: COX-2 inhibition, COX (ovine/human) inhibitor screening assay kit; type: biochemical; settings: for COX-2 inhibitory activity (in words): up to 50 µM final concentration
T1 construct: purchased Cayman Chemicals (bought through Sigma-Aldrich) 560131
T1 sequence (P35354 18-604): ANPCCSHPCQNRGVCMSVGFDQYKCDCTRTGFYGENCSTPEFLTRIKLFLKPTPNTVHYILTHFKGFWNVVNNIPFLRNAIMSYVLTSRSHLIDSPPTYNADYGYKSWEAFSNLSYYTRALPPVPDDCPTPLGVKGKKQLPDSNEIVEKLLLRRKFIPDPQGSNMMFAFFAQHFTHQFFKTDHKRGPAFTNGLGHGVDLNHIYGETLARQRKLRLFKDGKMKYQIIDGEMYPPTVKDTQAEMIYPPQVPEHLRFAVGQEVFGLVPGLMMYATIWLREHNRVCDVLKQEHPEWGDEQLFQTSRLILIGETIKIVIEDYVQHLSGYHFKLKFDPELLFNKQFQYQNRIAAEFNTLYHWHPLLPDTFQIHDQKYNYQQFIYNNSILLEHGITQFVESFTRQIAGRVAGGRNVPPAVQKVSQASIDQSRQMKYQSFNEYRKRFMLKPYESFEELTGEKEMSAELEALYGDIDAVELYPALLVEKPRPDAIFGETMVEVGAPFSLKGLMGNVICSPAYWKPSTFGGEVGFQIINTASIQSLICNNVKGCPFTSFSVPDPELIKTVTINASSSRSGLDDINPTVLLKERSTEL
Procedure: Cell culture reagents were purchased from Euroclone (Milan, Italy). COX (ovine/human) inhibitor screening assay kit (Catalog No. 560131, Cayman Chemicals, Ann Arbor, MI, USA) was purchased from Sigma-Aldrich, Burlington, MA, USA. […] The other reagents were purchased from Sigma-Aldrich, Burlington, MA, USA.
The COX-1/2 inhibition screening experiments were carried out according to the manufacturer’s instructions. The plate was incubated for 60 min at r.t. under shaking and read with the Tecan Infinite 200 Microplate Reader at λ = 405 nm.
The graph between percent inhibition of the enzyme and corresponding concentration of the compound provided IC50 values for the probe compounds.

[2] = tested on: OVCAR-3 xenograft tumors; test: NIR fluorescence imaging / biodistribution in OVCAR-3 s.c. xenograft models; type: in vivo, NSG mice; settings: for tumor-to-background ratio (TBR): OVCAR-3 s.c. NSG mice, 100 µL of 500 µM i.v., after 24 h; for clearance pattern (organ): ex vivo NIR FLI 6 h after 500 µM i.v., OVCAR-3 mice
Procedure: To assess the capacity of both conjugates to visualize ovarian xenograft tumors “in vivo” and evaluate accumulation and clearance behavior of the conjugates, kinetic imaging was performed at six different time-points. Subcutaneously engrafted OVCAR-3 NSG mice were injected with 100 µL of 500 µM RR11 or 23 (MSA14) intravenously into the tail vein (Figure 3). […] Tumor-specific fluorescence was obtained 4, 6, and 24 h after RR11 injection, with a mean tumor-to-background ratio (TBR) of 1.74 after 24 h. In OVCAR-3 bearing NSG mice (n = 3), injected with 23 (MSA14), high liver signals (ventral view, #) were obtained at all time points with high compound accumulation in the tumors at 24 h (*, Figure 3B). The best TBR of 1.44 was achieved after 24 h. Residual background fluorescence was predominantly observed in the spine and limbs as well as in the excretion organs.
Following the biodistribution over time “in vivo”, we assessed the accumulation of the compounds “ex vivo” at 6 h. In Figure 4A, RR11-induced tumor-specific signal, along with high fluorescence in kidneys, gallbladder, stomach, and lungs, can be observed. […] The higher gastrointestinal fluorescence signal in RR11-imaged mice can derive from auto-fluorescent alfalfa containing diet, which is acquired in the lower wavelength of RR11. The main differences between the accumulation and clearance behavior are marked with an arrow, indicating two different clearance patterns of the compounds through liver (23, MSA14) and kidney (RR11). Finally, the fluorescence of 23 (MSA14) was evaluated in a clinically compatible intraoperative setting using the FLARE® system to assess the suitability of the COX-1 targeted NIR compound for FIGS and its potential clinical translation (Figure 4B). The “in vivo” and “ex vivo” intraoperative images confirm the results from Figure 3B and Figure 4A. […] While the tumor fluorescence intensities were higher than those of kidneys, the fluorescence intensities in the gallbladder and lungs were the highest.
Female NOD-scid IL2rγ^null (NSG) mice, aged 6 to 25 weeks were maintained under defined floral conditions and no more than five mice were housed in individually ventilated (HEPA-filtered air) cages, kept on a 12 h dark/night schedule at a constant temperature of 21 °C and at 50% relative humidity at the University of Bergen’s animal facility. Observations of body weight and general condition including activity levels, appearance, and food intake were monitored twice weekly, and humane endpoints were defined with the use of score sheets. When indicated, animals were euthanized according to institutional guidelines. […]

Row | IC50 [1] [nM] | COX-2 inhibitory activity (in words) [1] | COX-2 inhibitory activity (in words) ([1]; listed as 23) | clearance pattern (organ) [2] | COX-2 % inhib. ([1]; at 50 µM compound final concentration) [%] | SMILES | tumor-to-background ratio (TBR) [2]
1 | > 50000 | did not inhibit | almost inactive | liver | – | CCN1/C(=C/C=C/C=C/C=C/C2=[N+](CCCCCC(=O)NCCCCNC(=O)Cc3onc(-c4ccc(OC)cc4)c3-c3ccc(OC)cc3)c3ccc4ccccc4c3C2(C)C)C(C)(C)c2c1ccc1ccccc21 [23 (MSA14), 3-(6-(4-(2-(3,4-Bis(4-methoxyphenyl)isoxazole-5-yl)acetamido)butyl)amino-6-oxohexyl)-2-[7-(1,3-dihydro-1,1-dimethyl-3-ethyl-2H-benz[e]indolin-2-yl-idene)-1,3,5-heptatrienyl]-1,1-dimethyl-3-(6-carboxilato-hexyl)-1H-benz[e]indolium chloride] | 1.44
2 | 2400 | – | – | kidney | 64 | COc1ccc(-c2noc(CC(=O)NCCCCNc3cc4[o+]c5cc(N(C)C)ccc5nc4c4ccccc34)c2-c2ccc(OC)cc2)cc1.[Cl-] [RR11, N-[4-(9-dimethylimino-9H-benzo[a]phenoxazin-5-ylamino)butyl]-2-(3,4-bis(4-methoxyphenyl)isoxazol-5-yl)acetamide chloride, reference compound] | 1.74

From publication PMC9230671, “Fluorochrome Selection for Imaging Intraoperative Ovarian Cancer Probes” (Pharmaceuticals, 2022)
